Test results published in publication PMC10041525, “New Dual Inhibitors of Bacterial Topoisomerases with Broad-Spectrum Antibacterial Activity and In Vivo Efficacy against Vancomycin-Intermediate Staphylococcus aureus” (Journal of Medicinal Chemistry, 2023).
Read-outs that look alike come from different tables or passages of the source.

Tests used:
Format in all cases: cell-based
[1] = tested on: 100 A. baumannii strains (50 MDR, 50 non-MDR); assay: MIC broth microdilution at IHMA Europe, panel of 100 strains; conditions: for MIC / MIC50 / MIC90: Acinetobacter baumannii
E. faecium (n = 13) = assay: MIC broth microdilution at IHMA Europe; conditions: Enterococcus faecium, read-out: MIC
E. faecalis ATCC 29212 = assay: IHMA QC MIC
Source text: Supplement jm2c01905_si_004.xlsx, sheet "QC" | column: MIC [µg/mL]

C[C@H]1COc2c(N3CCN(C)CC3)c(F)cc3c(=O)c(C(=O)O)cn1c23.C[C@H]1COc2c(N3CCN(C)CC3)c(F)cc3c(=O)c(C(=O)O)cn1c23.O [Levofloxacin, levofloxacin]
MIC ([1]; A. baumannii IHMA 2058329, Slovenia 2019, Non-MDR): ≤ 0.25 µg/mL
MIC ([1]; A. baumannii IHMA 2065587, France 2019, Non-MDR): ≤ 0.25 µg/mL
MIC ([1]; A. baumannii IHMA 2099294, United Kingdom 2019, Non-MDR): ≤ 0.25 µg/mL
MIC ([1]; A. baumannii IHMA 2129256, Qatar 2019, Non-MDR): ≤ 0.25 µg/mL
MIC ([1]; A. baumannii IHMA 2154584, Israel 2020, MDR): 8 µg/mL
MIC ([1]; A. baumannii IHMA 2155340, Kenya 2020, MDR): 16 µg/mL
MIC ([1]; A. baumannii IHMA 2156634, Turkey 2020, MDR): 16 µg/mL
MIC ([1]; A. baumannii IHMA 2156709, Turkey 2020, MDR): 16 µg/mL
MIC ([1]; A. baumannii IHMA 2157614, Australia 2020, Non-MDR): ≤ 0.25 µg/mL
MIC ([1]; A. baumannii IHMA 2177232, Lithuania 2020, MDR): 16 µg/mL
MIC ([1]; A. baumannii IHMA 2177489, Lithuania 2020, MDR): 16 µg/mL
MIC ([1]; A. baumannii IHMA 2178574, Ukraine 2020, Non-MDR): ≤ 0.25 µg/mL
MIC ([1]; A. baumannii IHMA 2180134, Malaysia 2020, Non-MDR): 0.5 µg/mL
MIC ([1]; A. baumannii IHMA 2180142, Malaysia 2020, MDR): 4 µg/mL
MIC ([1]; A. baumannii IHMA 2181370, Morocco 2020, MDR): 8 µg/mL
MIC ([1]; A. baumannii IHMA 2183729, Argentina 2020, MDR): 8 µg/mL
MIC ([1]; A. baumannii IHMA 2183849, Argentina 2020, Non-MDR): ≤ 0.25 µg/mL
MIC ([1]; A. baumannii IHMA 2184382, Japan 2020, Non-MDR): ≤ 0.25 µg/mL
MIC ([1]; A. baumannii IHMA 2193375, Venezuela 2020, MDR): 8 µg/mL
MIC ([1]; A. baumannii IHMA 2193485, Venezuela 2020, Non-MDR): ≤ 0.25 µg/mL
MIC ([1]; A. baumannii IHMA 2193607, Venezuela 2020, MDR): 8 µg/mL
MIC ([1]; A. baumannii IHMA 2195460, Italy 2020, MDR): 16 µg/mL
MIC ([1]; A. baumannii IHMA 2196914, South Africa 2020, MDR): 16 µg/mL
MIC ([1]; A. baumannii IHMA 2196959, South Africa 2020, MDR): 4 µg/mL
MIC ([1]; A. baumannii IHMA 2203763, Spain 2020, MDR): > 16 µg/mL
MIC ([1]; A. baumannii IHMA 2205144, Korea, South 2020, MDR): 16 µg/mL
MIC ([1]; A. baumannii IHMA 2206459, Taiwan 2020, MDR): 16 µg/mL
MIC ([1]; A. baumannii IHMA 2206507, Taiwan 2020, Non-MDR): ≤ 0.25 µg/mL
MIC ([1]; A. baumannii IHMA 2212575, Hungary 2020, Non-MDR): ≤ 0.25 µg/mL
MIC ([1]; A. baumannii IHMA 2215307, Hong Kong 2020, Non-MDR): ≤ 0.25 µg/mL
MIC ([1]; A. baumannii IHMA 2216586, Taiwan 2020, MDR): 8 µg/mL
MIC ([1]; A. baumannii IHMA 2223200, Colombia 2020, Non-MDR): ≤ 0.25 µg/mL
MIC ([1]; A. baumannii IHMA 2224017, Panama 2020, MDR): 8 µg/mL
MIC ([1]; A. baumannii IHMA 2224303, Panama 2020, Non-MDR): ≤ 0.25 µg/mL
MIC ([1]; A. baumannii IHMA 2231797, Greece 2020, MDR): 8 µg/mL
MIC ([1]; A. baumannii IHMA 2233099, Guatemala 2020, MDR): 8 µg/mL
MIC ([1]; A. baumannii IHMA 2233430, Kazakhstan 2020, MDR): > 16 µg/mL
MIC ([1]; A. baumannii IHMA 2233548, Kazakhstan 2020, Non-MDR): ≤ 0.25 µg/mL
MIC ([1]; A. baumannii IHMA 2238964, Thailand 2020, MDR): 4 µg/mL
MIC ([1]; A. baumannii IHMA 2239052, Thailand 2020, Non-MDR): ≤ 0.25 µg/mL
MIC ([1]; A. baumannii IHMA 2261047, Belgium 2020, MDR): 8 µg/mL
MIC ([1]; A. baumannii IHMA 2261633, Canada 2020, Non-MDR): ≤ 0.25 µg/mL
MIC ([1]; A. baumannii IHMA 2274234, South Africa 2020, MDR): 8 µg/mL
MIC ([1]; A. baumannii IHMA 2274364, South Africa 2020, MDR): 16 µg/mL
MIC ([1]; A. baumannii IHMA 2275237, Chile 2020, Non-MDR): ≤ 0.25 µg/mL
MIC ([1]; A. baumannii IHMA 2275751, Jordan 2020, MDR): 8 µg/mL
MIC ([1]; A. baumannii IHMA 2316205, United States 2020, MDR): 16 µg/mL
MIC50 ([1]; MDR n = 50): 8 µg/mL
MIC90 ([1]; MDR n = 50): 16 µg/mL
MIC50 ([1]; all isolates n = 100): 0.5 µg/mL
MIC90 ([1]; all isolates n = 100): 16 µg/mL
MIC50 ([1]; non-MDR n = 50): ≤ 0.25 µg/mL
MIC90 ([1]; non-MDR n = 50): ≤ 0.25 µg/mL
MIC ([1]; read-out: MAX (maximum MIC), non-MDR n = 50): 0.5 µg/mL
MIC ([1]; read-out: MAX (maximum MIC; all strains inhibited), MDR n = 50): > 16 µg/mL
MIC ([1]; read-out: MAX (maximum MIC; all strains inhibited), all isolates n = 100): > 16 µg/mL
MIC ([1]; read-out: MIN (minimum MIC), MDR n = 50): 4 µg/mL
MIC ([1]; read-out: MIN (minimum MIC), all isolates n = 100): ≤ 0.25 µg/mL
MIC ([1]; read-out: MIN (minimum MIC), non-MDR n = 50): ≤ 0.25 µg/mL
Percentage I ([1]; MDR n = 50): 12%
Percentage R ([1]; MDR n = 50): 88%
Percentage S ([1]; MDR n = 50): 0%
Percentage I ([1]; all n = 100, CLSI breakpoints): 6%
Percentage R ([1]; all n = 100, CLSI breakpoints): 44%
Percentage S ([1]; all n = 100, CLSI breakpoints): 50%
Percentage I ([1]; non-MDR n = 50): 0%
Percentage R ([1]; non-MDR n = 50): 0%
Percentage S ([1]; non-MDR n = 50): 100%
MIC (E. faecium (n = 13); E. faecium IHMA N° 1764866): > 32 µg/mL
MIC (E. faecium (n = 13); E. faecium IHMA N° 1765436): > 32 µg/mL
MIC (E. faecium (n = 13); E. faecium IHMA N° 1765746): > 32 µg/mL
MIC (E. faecium (n = 13); E. faecium IHMA N° 1893573): > 32 µg/mL
MIC (E. faecium (n = 13); E. faecium IHMA N° 1893846): > 32 µg/mL
MIC (E. faecium (n = 13); E. faecium IHMA N° 1893942): > 32 µg/mL
MIC (E. faecium (n = 13); E. faecium IHMA N° 1894055): > 32 µg/mL
MIC (E. faecium (n = 13); E. faecium IHMA N° 1897027): > 32 µg/mL
MIC (E. faecium (n = 13); E. faecium IHMA N° 1897101): > 32 µg/mL
MIC (E. faecium (n = 13); E. faecium IHMA N° 1904592): 32 µg/mL
MIC (E. faecium (n = 13); E. faecium IHMA N° 2075051): > 32 µg/mL
MIC (E. faecium (n = 13); E. faecium IHMA N° 2077718): > 32 µg/mL
MIC (E. faecium (n = 13); E. faecium IHMA N° 2083787): 32 µg/mL
MIC (E. faecalis ATCC 29212; Enterococcus faecalis, ATCC29212): 1 µg/mL
MIC (E. faecalis ATCC 29212; QC strain E. faecalis ATCC 29212, test date 2021-11-26): 1 µg/mL
